{"source": "patent US20250144049A1", "about": "“METHODS, COMPOSITIONS, AND USES RELATED TO THE TREATMENT AND PREVENTION OF LEIGH SYNDROME” (Stealth BioTherapeutics Inc., priority 2023, published 2025)", "key": {"[1]": {"tested_on": "Ndufs4-KO mouse model of Leigh syndrome", "test": "Survival study in Ndufs4-KO mouse model of Leigh syndrome", "type": "in vivo", "conditions": "Ndufs4-KO mice", "description": "Study design. A survival study was performed to test Compound 4 in a whole body (WB)-Ndufs4-KO mouse model of Leigh syndrome (B6.129S4-Ndufs4^tm1.1Rpa/J; JAX Stock #027058; “Ndufs4-KO mice”). Defects in the non-enzymatic, nuclear-encoded protein, NDUFS4 (NADH dehydrogenase (ubiquinone) Fe—S protein 4), cause a Leigh-like phenotype in humans that results in death within 3-16 months after birth. Exon 2 of the mouse Ndufs4 gene has been excised in this knockout allele. Three groups of mice were included in this study: (1) wild-type (WT) C57BL/6J mice (n=12), each receiving 20 mg/kg Compound 4 subcutaneously once per day starting at postnatal age 21 days (P21); (2) Ndufs4-KO mice (homozygous knock outs (“HOM”)) (“HOM Vehicle”) (n=9), each receiving vehicle (5% Kolliphor-ELP in 1×PBS at a dosage of 10 mL/kg/day) subcutaneously once per day starting at P21; and (3) Ndufs4-KO mice (“HOM Comp. 4, 20 mg/kg”) (n=13), each receiving 20 mg/kg Compound 4 subcutaneously per day starting at P21. All studies were performed under the approved IACUC protocol at Jackson Laboratories (Bar Harbor, ME). The mice were sacrificed and necropsied upon reaching a humane endpoint as determined by body conditioning and neurological scoring method developed by Jackson Laboratory for this animal model. Terminal plasma was collected via cardiocentesis post euthanasia for future analysis.\nStatistical analysis. Kaplan Meier plot followed by chi squared test were performed using GraphPad Prism version 10.0.0, GraphPad Software (Boston, Massachusetts) (www.graphpad.com)."}, "[2]": {"test": "Compound 4 pharmacokinetics and tissue exposure after five daily subcutaneous doses", "type": "in vivo, C57BL/6 mice", "description": "Study design details: • Animals were allowed to acclimate to the test facility for at least two days prior to the beginning of the study. • Study animals were male C57BL/6 mice weighing approximately 18-25 grams each. • Fasting was not required for the study. • Body weights were recorded prior to dose administration. The volume of each dose delivered (mL/kg) was based on each individual animal's body weight. • This was a multiple dose serial PK dosed subcutaneously once daily over 5 days. Compound 4 was administered to two groups: Group 1 at 60 mg/kg and Group 2 at 180 mg/kg (6 and 18 mg/mL, 15% Kolliphor ELP in PBS, 10 mL/kg; N=3/group). Serial PK timepoints were collected following the 5th and final dose.\nSample collection details: • Serial blood samples were collected via tail vein snip. • Blood samples were collected into tubes with anticoagulant. Tubes were stored on wet ice until processed to plasma by centrifugation (3500 rpm at 5° C. for 10 minutes) within 20 minutes of collection. Sample aliquots of 20 μL were transferred into individual uniquely labeled matrix tubes and stored at nominal −80° C. until transferred to analytical chemistry for analysis. • Immediately following each terminal blood collection for all groups, animals were sacrificed and perfused with cold PBS. Heart and brain tissues were collected. • Perfusion methodology: The chest was opened lengthwise using scissors to expose the thoracic organs. A scalpel was used to cut a small hole into the left ventricle just large enough to insert a cannula tip. The cannula was attached to an appropriately sized tubing and syringe prefilled with cold PBS and primed to remove any air. The tip of the cannula was inserted into the left ventricle and directed into the ascending aorta. Hemostats were used to help keep the cannula in place during perfusion. A second hole was made in the right atrium to allow for the escape of fluid during the return circulation. The syringe attached to the cannula was manually pushed or placed into a pump programmed to infuse at 10 mL/min. Animals were perfused for a minimum of 3 minutes or more if needed (until the exiting fluid was clear).\n• N=3/group; • Collections relative to the final dose: • Plasma: 60 mg/kg at 2 and 24 hr, 180 mg/kg at predose, 2, 8, and 24 hr • Heart and Brain: 24 hr (terminal, PBS-perfused); • RGA 2 bioanalysis.\n• N=3/timepoint; • Collections relative to the final dose: • Plasma: 0.5, 2, 8, and 24 hr (terminal) • Heart and Brain: 0.5, 2, 8, and 24 hr (terminal, PBS-perfused) • RGA 2 bioanalysis."}, "[3]": {"tested_on": "Ndufs4-KO mouse model of Leigh syndrome", "test": "Biomarker evaluation study in Ndufs4-KO mouse model of Leigh syndrome", "type": "in vivo", "conditions": "Ndufs4-KO mice", "description": "Study design. A biomarker evaluation study was performed to test Compound 4 in a mouse model of Leigh syndrome (B6.129S4-Ndufs4^tm1.1Rpa/J; JAX Stock #027058). All studies were performed under the approved IACUC protocol at Jackson Laboratories Bar Harbor ME. Three groups of mice were included in this study: (1) wild-type (WT) C57BL/6J mice (n=8), each receiving 20 mg/kg Compound 4 subcutaneously once per day starting at postnatal age 21 days (P21); (2) Ndufs4-KO mice (homozygous knock outs (“HOM”)) (“HOM Veh”) (n=8), each receiving vehicle (5% Kolliphor-ELP in 1×PBS at a dosage of 10 mL/kg/day) subcutaneously once per day starting at P21; and (3) Ndufs4-KO mice (“HOM Comp. 4, 20 mg/kg”) (n=8), each receiving 20 mg/kg Compound 4 subcutaneously per day starting at P21. From the age of P30, body weight and body temperature was measured daily. At the age of P30 and P40 animals were made to perform a forced exercise on an inclining treadmill for up to 15 minutes or reaching exhaustion whichever happened first. Retro-orbital blood collection (for plasma) was performed after each exercise session for L-Lactic acid level analysis using an enzymatic reaction (biochemical) method with colorimetric read out. The mice were sacrificed and necropsied at P45 or upon reaching a humane endpoint as determined by body conditioning and neurological scoring method developed by Jackson Laboratory for this animal model. Terminal plasma was collected via cardiocentesis post-euthanasia for mitokine analysis (GDF-15 and FGF-21) using an ELISA kit (Abcam: ab216947, ab212160). The manufacturer protocol was followed to generate a standard curve. Plasma was diluted 1:5 in phosphate buffered saline for the ELISA.\nStatistical analysis. Kaplan Meier plot followed by chi squared test & two-way ANOVA followed by Dunnett's multiple comparisons test were performed using GraphPad Prism version 10.0.0, GraphPad Software (Boston, Massachusetts) (www.graphpad.com)."}, "[4]": {"conditions": "male, C57BL/6, mouse, in vivo, sc, 60 mg/kg"}, "[5]": {"conditions": "20 mg/kg SC daily, terminal plasma, FIG. 24C"}}, "data": [{"smiles": "CC1=C(C)C(=O)C(CC[C@](C)(O)CCCCCCCCC(F)(F)F)=C(C)C1=O", "note": "[Compound 4]", "values": [{"measurement": "effect on survival, Gehan Breslow-Wilcoxon test P", "setting": "[1]; 20 mg/kg SC daily from P21", "result": "< 0.0001"}, {"measurement": "effect on survival, logrank test P", "setting": "[1]; 20 mg/kg SC daily from P21", "result": "< 0.0001"}, {"measurement": "survival", "setting": "[1]; 20 mg/kg SC once per day from P21, vs vehicle, FIG. 23", "result": "significantly improved survival"}, {"measurement": "time to steady-state", "setting": "[2]; male, C57BL/6, mouse, in vivo, sc", "result": "≤ 5", "unit": "days"}, {"measurement": "AUClast/Dose", "setting": "[2]; [4]", "result": 257, "unit": "kg·ng·h/mL/mg"}, {"measurement": "Cmax/Dose", "setting": "[2]; [4]", "result": 24.0, "unit": "kg·ng/mL/mg"}, {"measurement": "AUClast/Dose", "setting": "[2]; male, C57BL/6, mouse, in vivo, sc, 180 mg/kg", "result": 273, "unit": "kg·ng·h/mL/mg"}, {"measurement": "C24/Dose", "setting": "[2]; male, C57BL/6, mouse, in vivo, sc, 180 mg/kg, 24 h", "result": 1.48, "unit": "kg·ng/mL/mg"}, {"measurement": "concentrations in heart versus brain", "setting": "[2]; mouse tissue after 5 days", "result": "Similar"}, {"measurement": "C24 (trough) tissue exposure versus dose", "setting": "[2]; mouse, in vivo", "result": "approximately proportional to dose"}, {"measurement": "survival proportion", "setting": "[3]; 20 mg/kg SC daily from P21 until P46, vs vehicle, FIG. 24A", "result": "improved survival proportion"}, {"measurement": "exercise-induced lactic acidosis (plasma lactate)", "setting": "[3]; 20 mg/kg SC daily, forced exercise at P30 and P40, FIG. 24B", "result": "mitigated exercise-induced lactic acidosis"}, {"measurement": "plasma FGF-21", "setting": "[3]; [5]", "result": "normalizing trends"}, {"measurement": "plasma GDF-15", "setting": "[3]; [5]", "result": "significantly normalized"}]}]}
